In PMC12856912, “Structure-Guided Semisynthesis of Blasticidin S–Amicetin Chimeras as Selective Ribosome Inhibitors” (Journal of the American Chemical Society, 2026):
Values after ≈ are worked out from the molar mass of the structure shown. Read-outs that look alike come from different tables or passages of the source.

Tests used:
[1] = test system: MRSA ATCC 43300; test: Antibacterial MIC assay, serial dilution; type: cell-based, Staphylococcus aureus; details: for Selectivity index (CC50/MIC) MRSA 43300: CC50 Vero cells / MIC; for MIC: Staphylococcus aureus, read-out: MIC MRSA ATCC 43300
Description: (§1) Media and solutions were autoclaved or sterile filtered prior to use and mani pulations were carri ed out in a laminar flow hood. Antibacterial t esting was performed in polypropylene 96-well flat bottom plates. The minimal inhibitory concentration of blasticidin S (1) hydrochloride, methyl ester (3) trihydrochloride, P10 (2) tri-T FA , phenet hyl amide (4) tri -T FA , an d blastimidines M 19– 22, A, 29–32, P 37–40, and C 43–46 (salt forms as described in the te xt) were assessed against Staphylococcus aureus ΔNorA, S. aureus ATCC 6538P, methicillin-resistant S. aureus (MRSA) ATCC 43300, Enterococcus faecalis ATCC 29212, vancomycin- resistant Enterococcus, Klebsiella pneumoniae ATCC 29665, Pseudomonas aeruginosa,and Acinetobacter baumannii ATCC 17978 using serial dilutions. Doxycycline (Gold Bio) as a positive control and the vehicle as a negative control. Stock solutions of each compound were prepared at 2.56 mg/mL in 50% DMSO/water and serially diluted in 50% DMSO/water to create master plates. From the master plates, 10 μ L o f each dilution was applied to test plates using a Bravo automated liquid transfer system (Agilent).
(§2) Bacteria previously grown overnight (37 °C, 120–200 RPM), in LB broth were diluted to an OD600 of 0.05 in cation-adjusted Mueller-Hinton broth (CAMHB), grown to an OD600 of ~0.5, and diluted to an OD600 of 0.004 in CAMHB . These diluted cultures were applied to the test plates (190 μL per test well) resulting in final concentrations of the test compounds of 128–1 μg/ m L.
(§3) Growth controls (wells with inoculated media but no vehicle or test compounds) were included to assess any potential toxicity from the vehicle. Th e plates were in cubated at 37 °C for 16–18 h, except fo r VRE and E. faecalis, which w ere in cub ated at 37 °C fo r 24 h. Inh ibition was determined by measuring the optical density at 600 nm (OD60 0) with a Cytation 3 pl ate read er (BioTek). The optical density measurem ents were no rmalized to the positive and negative controls and the vehicle and growth controls were compared and found to b e indistinguishable, indicating no toxicity from […]
(§4) the vehicle used. The MIC was the lowest concentration that inhibited >90% of growth. Two biological replicates were performed in duplicate. MIC values are reported as a range from […]

[2] = test system: S. aureus ATCC 6538P; test: Antibacterial MIC assay, serial dilution; type: cell-based, Staphylococcus aureus; details: for Selectivity index (CC50/MIC) S. aureus 6538P: CC50 Vero cells / MIC; for MIC: Staphylococcus aureus, ATCC 6538P / ATCC 6539P, read-out: MIC S. aureus ATCC 6539P
Description: as §1, §2, §3, §4

[3] = test system: S. aureus ΔNorA; test: Antibacterial MIC assay, serial dilution; type: cell-based, Staphylococcus aureus; details: for Selectivity index (CC50/MIC) S. aureus ΔNorA: CC50 Vero cells / MIC; for MIC: Staphylococcus aureus, read-out: MIC S. aureus ∆NorA
Description: as §1, §2, §3, §4

[4] = test system: Methicillin resistant Staphylococcus epidermidis (MRSE) ATCC 35984 NRS101; test: Antibacterial MIC assay, serial dilution; type: cell-based; details: for Selectivity index (CC50/MIC) MRSE 35984: CC50 Vero cells / MIC; for MIC: Staphylococcus epidermidis, read-out: MIC Methicillin resistant Staphylococcus epidermidis (MRSE) ATCC 35984 NRS101
[5] = test system: Methicillin resistant S. aureus (MRSA) USA300; test: Antibacterial MIC assay, serial dilution; type: cell-based, Staphylococcus aureus; details: for Selectivity index (CC50/MIC) MRSA USA300: CC50 Vero cells / MIC; for MIC: Staphylococcus aureus, read-out: MIC Methicillin resistant S. aureus (MRSA) USA300
[6] = test system: Vancomycin resistant E. faecalis NR-31972 (VRE); test: Antibacterial MIC assay, serial dilution; type: cell-based, Enterococcus faecalis; details: for Selectivity index (CC50/MIC) VRE NR-31972: CC50 Vero cells / MIC; for MIC: Enterococcus faecalis, VRE, 24 h, read-out: MIC Vancomycin resistant E. faecalis NR-31972 (VRE)
Description: as §1, §2, §3, §4

[7] = test system: Acinetobacter baumannii ATCC 17978; test: Antibacterial MIC assay, serial dilution; type: cell-based; details: ATCC17978, range from biological replicates
Description: as §1, §2, §3, §4

[8] = test system: Enterococcus faecalis ATCC 29212; test: Antibacterial MIC assay, serial dilution; type: cell-based; details: for Selectivity index (CC50/MIC) E. faecalis 29212: CC50 Vero cells / MIC; for MIC: Enterococcus faecalis, ATCC 29112 / ATCC 29212, 24 h, read-out: MIC E. faecalis ATCC 29112
Description: as §1, §2, §3, §4

[9] = test system: Klebsiella pneumoniae ATCC 29665; test: Antibacterial MIC assay, serial dilution; type: cell-based; details: for Selectivity index (CC50/MIC) K. pneumoniae: CC50 Vero cells / MIC; for MIC: Klebsiella pneumoniae, ATCC29665, range from biological replicates, read-out: MIC K. pneumoniae ATCC-29665
Description: as §1, §2, §3, §4

[10] = test system: Pseudomonas aeruginosa; test: Antibacterial MIC assay, serial dilution; type: cell-based; details: for Selectivity index (CC50/MIC) P. aeruginosa: CC50 Vero cells / MIC; for MIC: Pseudomonas aeruginosa, range from biological replicates, read-out: MIC P. aeruginosa
Description: as §1, §2, §3, §4

[11] = test system: Vancomycin resistant Enterococcus faecium NR-31909 (VRE); test: Antibacterial MIC assay, serial dilution; type: cell-based; details: for Selectivity index (CC50/MIC) VRE NR-31909: CC50 Vero cells / MIC; for MIC: Enterococcus faecium, VRE, 24 h, read-out: MIC Vancomycin resistant Enterococcus faecium NR-31909 (VRE)
Description: as §1, §2, §3, §4

[12] = test system: Escherichia coli BAA-2452; test: Antibacterial MIC assay, serial dilution; type: cell-based; details: BAA2452, read-out: MIC Escherichia coli BAA-2452
[13] = Cytotoxicity assay (MTS/PMS); type: cell-based; details: monkey, 24 h treatment, MTS/PMS, average of three biological replicates, read-out: CC50 against Vero cells
Description: The potential cytotoxic eff ect of the test compounds was investigated using Vero cells (monkey kidney epitheli al cells) following est ablished protocols.3 Briefly, Vero cells were plated into 96-well plates supplemented with Dulbecco's Modified Eagle Medium (DMEM) containing 10% fetal bovine serum (FBS). The cells were placed in a humidified 37 °C environment for incubation with 5% CO₂ for 24 h to allow proper adherence and growth. Following the incubation period, the culture medium was replaced with fresh DMEM containing serial dilutions of the test compounds, while the v ehicle alon e w as used as a negative control. The treated cells were incubated for an additional 24 h. To assess cell viability, the MTS/PMS reagent was added to each well and incubat ed for 4 h. A microplate reader (S ynergy H1, BioTek, USA) was used to m easure absorbance at 490 nm. Al l experiments wer e cond ucted usingthree biologi cal replicates .
Ta b l e S2. CC50 valuesa (µg/mL) against Vero cells […]
aValues at which the cell viability (normalized to vehicle control) was 50%. […]

[14] = Vero cells (monkey kidney epithelial cells)

Row | Compound | Selectivity index (CC50/MIC) MRSA 43300 [1] | MIC [1] [µg/mL] | Selectivity index (CC50/MIC) S. aureus 6538P [2] | MIC [2] [µg/mL] | Selectivity index (CC50/MIC) S. aureus ΔNorA [3] | MIC [3] [µg/mL] | Selectivity index (CC50/MIC) MRSE 35984 [4] | MIC [4] [µg/mL] | Selectivity index (CC50/MIC) MRSA USA300 [5] | MIC [5] [µg/mL] | Selectivity index (CC50/MIC) VRE NR-31972 [6] | MIC [6] [µg/mL] | MIC [7] [µg/mL] | Selectivity index (CC50/MIC) E. faecalis 29212 [8] | MIC [8] [µg/mL] | Selectivity index (CC50/MIC) K. pneumoniae [9] | MIC [9] [µg/mL] | Selectivity index (CC50/MIC) P. aeruginosa [10] | MIC [10] [µg/mL] | Selectivity index (CC50/MIC) VRE NR-31909 [11] | also measured
1 | COC(=O)[C@H]1O[C@@H](n2ccc(NC(=O)c3ccc(NC(C)=O)cc3)nc2=O)C=C[C@@H]1NC(=O)C[C@@H](N)CCN(C)C(=N)N [Blastimidine M4] | 6.6 | 32 (≈ 53.5 µM) | 9.9 | 16 to 32 (≈ 26.8 to 53.5 µM) | 6.6 | 32 (≈ 53.5 µM) | 3.3 | 64 (≈ 107 µM) | 3.3 | 64 (≈ 107 µM) | 3.3 | 64 (≈ 107 µM) | > 128 | 6.6 | 32 (≈ 53.5 µM) | 6.6 | 32 (≈ 53.5 µM) | <1.6 | > 128 | 1.6 | MIC [11]: 128 µg/mL (≈ 214 µM); MIC [12]: 64 µg/mL (≈ 107 µM); CC50 at 24 h [13, 14]: 210 µg/mL (≈ 351 µM)
2 | COC(=O)[C@H]1O[C@@H](n2ccc(NC(=O)c3ccc(N)cc3)nc2=O)C=C[C@@H]1NC(=O)C[C@@H](N)CCN(C)C(=N)N [Blastimidine M2] | 7.9 | 16 (≈ 28.8 µM) | 7.9 | 16 (≈ 28.8 µM) | 5.9 | 16 to 32 (≈ 28.8 to 57.6 µM) | 7.9 | 16 (≈ 28.8 µM) | 16 | 8 (≈ 14.4 µM) | 4.0 | 32 (≈ 57.6 µM) | > 128 | 16 | 8 (≈ 14.4 µM) | 2.0 | 64 (≈ 115 µM) | <1.0 | > 128 | 1.0 | MIC [11]: 128 µg/mL (≈ 230 µM); MIC [12]: 32 µg/mL (≈ 57.6 µM); CC50 at 24 h [13]: 126 µg/mL (≈ 227 µM)
3 | CC(=O)Nc1ccc(C(=O)Nc2ccn([C@H]3C=C[C@H](NC(=O)C[C@@H](N)CCN(C)C(=N)N)[C@@H](C(N)=O)O3)c(=O)n2)cc1 [Blastimidine A4] | 1.1 | 64 (≈ 110 µM) | 1.1 | 64 (≈ 110 µM) | 1.1 | 64 (≈ 110 µM) | 1.1 | 64 (≈ 110 µM) | 1.1 | 64 (≈ 110 µM) | 1.1 | 64 (≈ 110 µM) | > 128 | 2.1 | 32 (≈ 54.9 µM) | 3.2 | 16 to 32 (≈ 27.5 to 54.9 µM) | <0.5 | > 128 | 2.1 | MIC [11]: 32 µg/mL (≈ 54.9 µM); MIC [12]: 32 µg/mL (≈ 54.9 µM); CC50 at 24 h [13, 14]: 68 µg/mL (≈ 117 µM)
